For 2 compounds, EC50 results are on record in ChEMBL document CHEMBL1141766, “Isoprenylated naphthoquinone dimers firmianones A, B, and C from Firmiana platanifolia” (2005).

SMILES strings stand for the structures.

The experiment deals with P388. Description: Cytotoxicity against mouse P388 cells. It counts as functional. Particulars: read-out: ED50 (the source's name).

Turning to `CC1=C[C@@H]2c3c(c(O)c4ccccc4c3O[C@@H]3O[C@H](CO)[C@@H](O)[C@H](O)[C@H]3O)[C@@]3(O)c4ccccc4C(=O)[C@]2(/C=C/C(C)(C)O)[C@@]3(O)C1` [FIRMIANONE A], the EC50 was 6.5 µM.
To `CC1=C[C@@H]2c3c(c(O)c4ccccc4c3O[C@@H]3O[C@H](CO)[C@@H](O)[C@H](O)[C@H]3O)[C@@]3(O)c4cccc(O)c4C(=O)[C@]2(/C=C/C(C)(C)O)[C@@]3(O)C1` [FIRMIANONE B] belongs 8.1 µM.
